US20260133193A1, “COMPOSITIONS AND METHODS FOR TREATING INFLAMMATORY DISEASES” (University of Washington, priority 2018, published 2026)
Entries after “also recorded” stand apart in the source; their conditions may differ.

Legend:
FcgRIIA on neutrophils [1] = experiment: FcgRIIA shedding, fluorimetry of shed antibody-FcgRIIA complexes in supernatant; type: cell-based, human; settings: pre-labeled neutrophils, R848 stimulation
Protocol: To assess if reduction in FcgRIIA cell surface expression was dependent on proteolytic cleavage or internalization of the receptor, we analyzed total FcgRIIA expression in fixed permeabilized neutrophils. Specifically, neutrophils were activated with R848 and FcgRIIA levels analyzed in permeabilized cells by flow cytometry. The experiment was repeated five times and compared using paired t test (P=0.0075). […] Specifically, FcgRIIA cell surface expression was analyzed by flow cytometry using two antibodies, FUN2 and IV.3, in non-stimulated and R848-stimulated neutrophils. The experiment was repeated six times; combined results were compared using paired t test (P<0.0001). […] For this experiment, neutrophils were labeled with FITC-conjugated IV.3 anti-FcgRIIA or anti-FUN-2 antibodies and the shed antibody-FcgRIIA complex quantified by fluorimetry following R848 stimulation with or without prior addition of a pan-protease inhibitor. […]
For detection of shed FcgRIIA, neutrophils were pre-labeled with FITC-conjugated anti-CD32A antibody IV.3 (Stemcell Technologies) or FITC-conjugated anti-CD32A antibody FUN-2 (Biolegend), and washed extensively prior to activation with R848. Cell free supernatant was analyzed for shed FcgRIIA-anti-CD32A-FITC complexes by flourimetry (Synergy 2, BioTek) using anti-CD32A antibodies as a standard curve. […]

FcgRIIA on neutrophils [2] = experiment: FcgRIIA shedding, flow cytometry of neutrophil cell surface FcgRs; type: cell-based, human; settings: flow cytometry
Source text: To determine the mechanism for the TLR-induced reduction in RNP-IC phagocytosis, we analyzed the neutrophil surface expression of FcgRs after exposure to TLR ligand. Neutrophils were activated with R848 and cell surface expression of FcgRs analyzed by flow cytometry. The results were presented as FcgR levels as compared to no R848 added (% of control). The experiment was repeated five (FcgRI), seven (FcgRIII), and twenty-five (FcgRIIA) times; combined results were compared using paired t test (FcgRIIA, P<0.0001; FcgRI, P=0.027; FcgRIII, P=0.0044). […] In this experiment, neutrophils were activated with the TLR7/8 agonist R848 and analyzed for FcgRIIA at different time-points and concentrations. The experiment was repeated four (concentration) and six (kinetics) times; combined results were compared using paired t test (30 min, P=0.0158; 60 min, P<0.0001; 120 min, P=0.0003; 0.125 μg/mL, P=0.0071; 0.25 μg/mL, P=0.0058; 0.5 μg/mL, P=0.0008; 1 μg/mL, P<0.0001; 2 μg/mL, P<0.0001). […] For these experiments, neutrophils were activated with TLR ligands (LPS, 1 μg/mL, PAM3CSK4 (5 μg/mL), CpG DNA (2 μg/mL), Loxoribine (0.1 mM), CL075 (2.5 μg/mL) or R848 (2 μg/mL)) for 60 minutes or 4 hours and analyzed for FcgRIIA, FcgRII or CD11b and CD66b cell surface expression by flow cytometry. Experiments were repeated six (LPS, P=0.0008), eight (CpG DNA, P=0.035; Loxoribine, P<0.0001, and CL075, P<0.0001), ten (PAM3CSK4, P<0.0001) and forty times (R848, P<0.0001); combined results were compared using paired t test. Additional experiments were repeated four and eight times; combined results were compared using paired t test (CD11b: R848, P<0.0001; LPS, P=0.0002; PAM, P<0.0001; CpG DNA, P<0.0001; CD66b: R848, P<0.0001; LPS, P<0.0001; PAM, P<0.0001; CpG DNA, P=0.014).
Neutrophils were activated by LPS (1 μg/mL), R848 (2 μg/mL), PAM3CSK4 (5 μg/mL), Loxoribine (0.1 mM), CL075 (2.5 μg/mL) or CpG DNA (2 μg/mL) for 30 minutes, followed by analysis of cell surface expression of CD32A (IV.3; Stemcell Technologies, FUN-2, BioLegend), CD16 (clone 3G8), CD64 (clone 10.1), and CD66b (all from BioLegend) by flow cytometry. For intracellular staining, neutrophils were fixed in 2% paraformaldehyde for 10 minutes, permeabilized with saponin (diluted 1:1000 in PBS) for 15 minutes and stained with anti-CD32A antibodies diluted 1:100. In some experiments, neutrophils were incubated with inhibitors (DPI (25 μM, Sigma), apocynin (100 μM, Sigma), GM-6001 (10 μM, Enzo Life Sciences), LY294002 (10 μM), cOmplete Protease Inhibitor Cocktail Tablets (1× dissolved in H2O, Roche), neutrophil elastase IV inhibitor (25 μM, Calbiochem), E-64 (1 μM, Sigma), 4-(2-Aminoethyl)benzenesulfonyl fluoride hydrochloride (AEBSF, 0.1 mM, Sigma), CMK (25 μM, Enzo Life Sciences), cytochalasin B (5 μM, Sigma) or chymostatin (10 μg/mL, Sigma)) or recombinant furin (100 ng/mL, maximal dose tolerated by the neutrophils, Peprotech) 30 minutes prior to addition of stimuli. In some experiments cell surface levels of B cell activating factor (BAFF, Biolegend) was analyzed according to the same protocol as described above. Monocytes and pDCs were detected using antibodies to CD14 (BioLegend) and CD304 (Miltenyi Biotech), respectively.

CCOCc1nc2c(N)nc3ccccc3c2n1CC(C)(C)O [R848]
cell-free FcgRIIA-IV.3 (anti-CD32A) complexes in supernatant (FcgRIIA on neutrophils [1]): detected in increased amounts in the cell-free supernatant | neutrophil cell surface expression of FcgRIIA after stimulus (FcgRIIA on neutrophils [2]; clone IV.3, vs non-stimulated): significantly reduced; also recorded: time- and dose-dependent | neutrophil surface levels of FcgRIIIB and FcgRI after stimulus (FcgRIIA on neutrophils [2]; vs no R848): increased
